Laboratory results reported in ChEMBL document CHEMBL4190403, “Design, synthesis, and biological evaluation of pyrazole derivatives containing acetamide bond as potential BRAFV600E inhibitors” (Bioorg Med Chem Lett, 2018).
Active and inactive are the calls of the source. No cut-off for these calls is given here.

Columns and labels:
A-375 [1] = test: Induction of apoptosis in human A375 cells assessed as late apoptotic cells at 3 uM after 24 hrs by Annexin V-FITC/propidium iodide staining based flow cytometry (reference value: 3.80 to 4.61%); format: functional
A-375 [2] = test: Induction of apoptosis in human A375 cells assessed as early apoptotic cells at 3 uM after 36 hrs by Annexin V-FITC/propidium iodide staining based flow cytometry (reference value: 1.22 to 1.64%); format: functional
A-375 [3] = test: Cell cycle arrest in human A375 cells assessed as accumulation at G2/M phase at 1 uM after 24 hrs by propidium iodide staining-based flow cytometry (reference value: 7.91 to 21.07%); format: functional
A-375 [4] = test: Induction of apoptosis in human A375 cells assessed as necrotic cells at 1 uM after 24 hrs by Annexin V-FITC/propidium iodide staining based flow cytometry (reference value: 0.635 to 3.12%); format: functional
A-375 [5] = test: Antiproliferative activity against human A375 cells harboring BRAF V600E mutant after 24 hrs by MTT assay; format: functional, cell-based; details: A-375, 24 h
A-375 [6] = test: Induction of apoptosis in human A375 cells assessed as early apoptotic cells at 3 uM after 12 hrs by Annexin V-FITC/propidium iodide staining based flow cytometry (reference value: 1.22 to 1.64%); format: functional
A-375 [7] = test: Induction of apoptosis in human A375 cells assessed as necrotic cells at 3 uM after 24 hrs by Annexin V-FITC/propidium iodide staining based flow cytometry (reference value: 0.635 to 3.12%); format: functional
A-375 [8] = test: Induction of apoptosis in human A375 cells assessed as late apoptotic cells at 1 uM after 24 hrs by Annexin V-FITC/propidium iodide staining based flow cytometry (reference value: 3.80 to 4.61%); format: functional
A-375 [9] = test: Cell cycle arrest in human A375 cells assessed as accumulation at G1 phase at 3 uM after 24 hrs by propidium iodide staining-based flow cytometry (reference value: 59.02 to 60.22%); format: functional
A-375 [10] = test: Induction of apoptosis in human A375 cells assessed as late apoptotic cells at 3 uM after 12 hrs by Annexin V-FITC/propidium iodide staining based flow cytometry (reference value: 3.80 to 4.61%); format: functional
A-375 [11] = test: Cell cycle arrest in human A375 cells assessed as accumulation at S phase at 3 uM after 36 hrs by propidium iodide staining-based flow cytometry (reference value: 20.08 to 31.09%); format: functional
A-375 [12] = test: Induction of apoptosis in human A375 cells assessed as viable cells at 3 uM after 24 hrs by Annexin V-FITC/propidium iodide staining based flow cytometry (reference value: 90.6 to 94.3%); format: functional; details: A-375, 24 h, read-out: Activity
A-375 [13] = test: Cell cycle arrest in human A375 cells assessed as accumulation at G2/M phase at 10 uM after 24 hrs by propidium iodide staining-based flow cytometry (reference value: 7.91 to 21.07%); format: functional
A-375 [14] = test: Induction of apoptosis in human A375 cells assessed as viable cells at 10 uM after 24 hrs by Annexin V-FITC/propidium iodide staining based flow cytometry (reference value: 90.6 to 94.3%); format: functional; details: A-375, 24 h, read-out: Activity
HT-29 = test: Antiproliferative activity against human HT-29 cells harboring BRAF V600E mutant after 24 hrs by MTT assay; format: functional, cell-based; details: HT-29, 24 h
A-375 [15] = test: Induction of apoptosis in human A375 cells assessed as necrotic cells at 3 uM after 12 hrs by Annexin V-FITC/propidium iodide staining based flow cytometry (reference value: 0.635 to 3.12%); format: functional
A-375 [16] = test: Induction of apoptosis in human A375 cells assessed as early apoptotic cells at 10 uM after 24 hrs by Annexin V-FITC/propidium iodide staining based flow cytometry (reference value: 1.22 to 1.64%); format: functional
A-375 [17] = test: Cell cycle arrest in human A375 cells assessed as accumulation at G1 phase after 24 hrs by propidium iodide staining-based flow cytometry; format: functional
A-375 [18] = test: Cell cycle arrest in human A375 cells assessed as accumulation at G1 phase at 3 uM after 12 hrs by propidium iodide staining-based flow cytometry (reference value: 59.02 to 60.22%); format: functional
A-375 [19] = test: Cell cycle arrest in human A375 cells assessed as accumulation at G2/M phase at 3 uM after 36 hrs by propidium iodide staining-based flow cytometry (reference value: 7.91 to 21.07%); format: functional
A-375 [20] = test: Cell cycle arrest in human A375 cells assessed as accumulation at S phase at 10 uM after 24 hrs by propidium iodide staining-based flow cytometry (reference value: 20.08 to 31.09%); format: functional
A-375 [21] = test: Induction of apoptosis in human A375 cells assessed as reduction in mitochondrial membrane potential up to 8 uM after 12 hrs using JC-1 staining-based flow cytometry; format: functional, cell-based
A-375 [22] = test: Induction of apoptosis in human A375 cells assessed as early apoptotic cells at 1 uM after 24 hrs by Annexin V-FITC/propidium iodide staining based flow cytometry (reference value: 1.22 to 1.64%); format: functional
A-375 [23] = test: Cell cycle arrest in human A375 cells assessed as accumulation at S phase at 3 uM after 12 hrs by propidium iodide staining-based flow cytometry (reference value: 20.08 to 31.09%); format: functional
A-375 [24] = test: Cell cycle arrest in human A375 cells assessed as accumulation at G1 phase at 1 uM after 24 hrs by propidium iodide staining-based flow cytometry (reference value: 59.02 to 60.22%); format: functional
A-375 [25] = test: Induction of apoptosis in human A375 cells assessed as viable cells at 3 uM after 12 hrs by Annexin V-FITC/propidium iodide staining based flow cytometry (reference value: 90.6 to 94.3%); format: functional; details: A-375, 12 h, read-out: Activity
A-375 [26] = test: Cell cycle arrest in human A375 cells assessed as accumulation at G1 phase at 3 uM after 36 hrs by propidium iodide staining-based flow cytometry (reference value: 59.02 to 60.22%); format: functional
[27] = biological target: Serine/threonine-protein kinase B-raf (Mus musculus, UniProt P28028, V600E); test: Inhibition of full-length GST-tagged mouse BRAF V600E mutant using recombinant human full length N-terminal His-tagged MEK1 as substrate preincubated for 1 hr followed by substrate addition measured after 25 mins by Nu-page gel-based phosphor screen analysis
Sequence of Serine/threonine-protein kinase B-raf (P28028 whole entry, looked up, stated change not applied): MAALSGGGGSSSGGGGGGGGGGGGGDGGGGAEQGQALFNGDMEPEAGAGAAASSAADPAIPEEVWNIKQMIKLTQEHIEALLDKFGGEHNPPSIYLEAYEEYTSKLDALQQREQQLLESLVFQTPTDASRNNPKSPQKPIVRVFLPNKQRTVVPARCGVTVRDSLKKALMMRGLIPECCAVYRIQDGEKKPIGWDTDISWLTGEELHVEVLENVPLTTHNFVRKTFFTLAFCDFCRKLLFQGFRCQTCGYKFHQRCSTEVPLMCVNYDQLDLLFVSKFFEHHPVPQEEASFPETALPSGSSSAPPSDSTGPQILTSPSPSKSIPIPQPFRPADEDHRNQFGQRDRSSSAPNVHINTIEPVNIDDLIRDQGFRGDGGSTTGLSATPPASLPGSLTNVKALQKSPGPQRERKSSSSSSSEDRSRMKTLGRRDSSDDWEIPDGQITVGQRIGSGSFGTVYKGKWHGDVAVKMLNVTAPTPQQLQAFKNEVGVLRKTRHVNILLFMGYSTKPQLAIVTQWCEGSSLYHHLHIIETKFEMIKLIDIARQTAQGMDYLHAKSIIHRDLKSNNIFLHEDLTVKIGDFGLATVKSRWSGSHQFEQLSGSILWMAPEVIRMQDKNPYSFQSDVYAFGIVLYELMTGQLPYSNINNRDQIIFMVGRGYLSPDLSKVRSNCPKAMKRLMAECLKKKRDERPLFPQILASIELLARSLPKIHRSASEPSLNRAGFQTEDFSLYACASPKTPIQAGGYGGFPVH

A-375 [28] = test: Cell cycle arrest in human A375 cells assessed as accumulation at G2/M phase at 3 uM after 12 hrs by propidium iodide staining-based flow cytometry (reference value: 7.91 to 21.07%); format: functional
A-375 [29] = test: Cell cycle arrest in human A375 cells assessed as accumulation at G1 phase at 10 uM after 24 hrs by propidium iodide staining-based flow cytometry (reference value: 59.02 to 60.22%); format: functional
A-375 [30] = test: Induction of apoptosis in human A375 cells assessed as late apoptotic cells at 10 uM after 24 hrs by Annexin V-FITC/propidium iodide staining based flow cytometry (reference value: 3.80 to 4.61%); format: functional
A-375 [31] = test: Induction of apoptosis in human A375 cells assessed as late apoptotic cells at 3 uM after 36 hrs by Annexin V-FITC/propidium iodide staining based flow cytometry (reference value: 3.80 to 4.61%); format: functional

IC50 (A-375 [5]): 960 nM | IC50 (HT-29): 2170 nM | IC50 [27]: 100 nM
Structure (SMILES): COc1ccc(-n2cc(NC(=O)Cn3ccc(-c4cccc(Cl)c4)n3)cn2)cc1
Activity (A-375 [1]): 19.1 - 29.2% | Activity (A-375 [2]): 1.95% | Activity (A-375 [3]): 15.89% | Activity (A-375 [4]): 4.51% | Activity (A-375 [6]): 5.22% | Activity (A-375 [7]): 2.89 - 4.99% | Activity (A-375 [8]): 14.1% | Activity (A-375 [9]): 40.19 - 43.48% | Activity (A-375 [10]): 19.7% | Activity (A-375 [11]): 52.38% | viability at 3 µM (A-375 [12]): 64.7 to 72.9% | Activity (A-375 [13]): 10.95% | viability at 10 µM (A-375 [14]): 53.2% | Activity (A-375 [15]): 9.77% | Activity (A-375 [16]): 1.81% | Activity (A-375 [17]): Dose-dependent effect | Activity (A-375 [18]): 51.08% | Activity (A-375 [19]): 10.06% | Activity (A-375 [20]): 47.03% | Activity (A-375 [21]): Active | Activity (A-375 [22]): 1.92% | Activity (A-375 [23]): 35.98% | Activity (A-375 [24]): 50.93% | viability at 3 µM (A-375 [25]): 65.3% | Activity (A-375 [26]): 35.56% | Activity (A-375 [28]): 11.44% | Activity (A-375 [29]): 39.32% | Activity (A-375 [30]): 37.5% | Activity (A-375 [31]): 59.7%
